Drawing on BindingDB's records for doi:10.1021/jm00055a005 (Scios Nova, 1993), this text covers IC50 for 11 compounds.

Assay [1] concerns the target Sigma receptor (Cavia porcellus). In words: Binding affinity against sigma sites in guinea pig membrane using [3H]DTG as the radioligand.
Assay [2] has as its target Sigma non-opioid intracellular receptor 1 (Cavia porcellus). As to the kind of experiment: Binding affinity against sigma sites in guinea pig membrane using [3H](+)-3-PPP as the radioligand.

For `c1ccc(CCCCCN2C3CCC2c2c([nH]c4ccccc24)C3)cc1` (configuration not stated) [1-[9,15-diazatetracyclo[10.2.1.02,10.03,8]pentadeca-2(10),3,5,7-tetraen-15-yl]-5-phenylpentane], the figures for the 50% inhibitory concentration (IC50) in assay [1] and in assay [2] were 0.107 µM and 0.348 µM, respectively.
The corresponding values for `Clc1ccc(OCCN2C3CCC2c2c([nH]c4ccccc24)C3)cc1` (configuration not stated) [1-(4-chlorophenoxy)-2-[9,15-diazatetracyclo[10.2.1.02,10.03,8]pentadeca-2(10),3,5,7-tetraen-15-yl]ethane] are 0.251 µM and 4.88 µM.
The corresponding values for `Fc1ccc2[nH]c3c(c2c1)C1CCC(C3)N1Cc1ccccc1` (configuration not stated) [15-benzyl-5-fluoro-9,15-diazatetracyclo[10.2.1.02,10.03,8]pentadeca-2(10),3,5,7-tetraene] are 0.086 µM and 0.908 µM.
Consider `c1csc(CCCCN2C3CCC2c2c([nH]c4ccccc24)C3)c1` (configuration not stated) [1-[9,15-diazatetracyclo[10.2.1.02,10.03,8]pentadeca-2(10),3,5,7-tetraen-15-yl]-4-(2-thienyl)butane], for which the IC50 – broadly, the point on the concentration scale where inhibition reaches its midpoint – is 0.021 µM in assay [1] and 0.098 µM in assay [2].
The corresponding values for `c1ccc(OCCCN2C3CCC2c2c([nH]c4ccccc24)C3)cc1` (configuration not stated) [1-[9,15-diazatetracyclo[10.2.1.02,10.03,8]pentadeca-2(10),3,5,7-tetraen-15-yl]-3-phenoxypropane] are 0.132 µM and 0.262 µM.
For `c1ccc(OCCCCN2C3CCC2c2c([nH]c4ccccc24)C3)cc1` (configuration not stated) [1-[9,15-diazatetracyclo[10.2.1.02,10.03,8]pentadeca-2(10),3,5,7-tetraen-15-yl]-4-phenoxybutane], in that order: 0.088 µM and 0.205 µM.
In the case of `c1ccc(CCCCN2C3CCC2c2c(n(Cc4ccccc4)c4ccccc24)C3)cc1` (configuration not stated) [1-[9-benzyl-9,15-diazatetracyclo[10.2.1.02,10.03,8]pentadeca-2(10),3,5,7-tetraen-15-yl]-4-phenylbutane], the IC50 in assay [1] amounted to 0.267 µM; in assay [2], 0.396 µM.
For `O=C1c2ccccc2C(=O)N1CCCN1C2CCC1c1c([nH]c3ccc(F)cc13)C2` (configuration not stated) [2-{3-[5-fluoro-9,15-diazatetracyclo[10.2.1.02,10.03,8]pentadeca-2(10),3,5,7-tetraen-15-yl]propyl}-1,3-isoindolinedione], in that order: 0.836 µM and 3.33 µM.
For `OCCCN1C2CCC1c1c([nH]c3ccc(F)cc13)C2` (configuration not stated) [3-[5-fluoro-9,15-diazatetracyclo[10.2.1.02,10.03,8]pentadeca-2(10),3,5,7-tetraen-15-yl]-1-propanol], in that order: 0.317 µM and 1.38 µM.
For the compound `CC(C)n1c2c(c3ccccc31)C1CCC(C2)N1CCCCc1ccccc1` (configuration not stated) [1-[9-isopropyl-9,15-diazatetracyclo[10.2.1.02,10.03,8]pentadeca-2(10),3,5,7-tetraen-15-yl]-4-phenylbutane], the IC50 in assay [1] worked out at 0.231 µM; in assay [2], 0.705 µM.
The corresponding values for `c1ccc(OCCN2C3CCC2c2c([nH]c4ccccc24)C3)cc1` (configuration not stated) [1-[9,15-diazatetracyclo[10.2.1.02,10.03,8]pentadeca-2(10),3,5,7-tetraen-15-yl]-2-phenoxyethane] are 0.11 µM and 0.534 µM.
